These results are taken from patent US20240109868A1, “EP300/CBP MODULATOR, PREPARATION METHOD THEREFOR AND USE THEREOF” (Miracure Biotechnology Limited, priority 2022, published 2024).

For one assay, the system named is 22Rv1 Cell. Kind of assay: 22RV1 cell growth inhibition, CellTiter-Glo, 72 h. The settings on record: Homo sapiens, 22Rv1, 72 h, 22RV1 cells, 72 h culture. Type of assay: cell-based. The procedure: (§1) 22RV1 or vCap cells were cultured in RPMI-1640 medium (10% fetal bovine serum and 100 units (per mL) of penicillin/streptomycin dual antibody were added to RPMI-1640) in a 37° C., 5% CO2 cell incubator. Cells at the logarithmic growth phase were inoculated onto a 96-well cell culture plate at 5×10^3 cells/100 μL/well and cultured overnight. Solutions of different concentrations of an active compound in DMSO were added, with the final concentration being 0.5% DMSO. The positive control was 1% TweeN2O, and the negative control was 0.5% DMSO. After 72 h of culture, an equal volume of CellTiter-Glo was added to each well, and the mixtures were mixed homogeneously by shaking for 2 min. The plate was let stand at room temperature for 10 min, and fluorescence signal values were read using a microplate reader. Data were analyzed using Prism 7.0 and graphs were generated. The values are shown as mean f SEM (N=2). […] The X-axis represents compound concentration (μM), and the Y-axis represents % inhibition.

Another assay deals with vCap Cell. As to the kind of experiment: vCap cell growth inhibition, CellTiter-Glo, 72 h. Type of assay: cell-based. The settings on record: Homo sapiens, VCaP, 72 h, vCap cells, 72 h culture. The procedure: as §1

Consider `CNC(=O)N1CCc2cc(C3CCNCC3)cc(N3CCCc4cc(-c5cnn(C)c5)c(C(F)F)cc43)c2C1` [Compound M001017], for which the IC50 in the assay with 22Rv1 Cell and with vCap Cell was above 1 µM in each case.

As for `CNC(=O)N1CCc2cc(C3CCN(C)CC3)cc(N3CCCc4cc(-c5cnn(C)c5)c(C(F)F)cc43)c2C1` [Compound M001018], the 50% inhibitory concentration (IC50) in the assay on 22Rv1 Cell and in the assay with vCap Cell was above 1 µM each time.

Consider `CNC(=O)N1CCc2cc(N3CCSCC3)cc(N3CCCc4cc(-c5cnn(C)c5)c(C(F)F)cc43)c2C1` [Compound M001019], for which the IC50 in the assay with 22Rv1 Cell and in the assay with vCap Cell was above 1 µM in each case.

Regarding `CNC(=O)N1CCc2cc(N3CCS(=O)(=O)CC3)cc(N3CCCc4cc(-c5cnn(C)c5)c(C(F)F)cc43)c2C1` [Compound M001021], the IC50 with 22Rv1 Cell and in the assay on vCap Cell was above 1 µM in each case.

Take `CN1CCN(c2cc3c(c(N4CCCc5cc(-c6cnn(C)c6)c(C(F)F)cc54)c2)CN(C)C(=O)C3)CC1` [Compound M001024]: the IC50 in the assay with 22Rv1 Cell and in the assay with vCap Cell was above 1 µM throughout.

On to `CN1Cc2c(cc(C3CCNCC3)cc2N2CCCc3cc(-c4cnn(C)c4)c(C(F)F)cc32)CC1=O` [Compound M001027], for which the half-maximal inhibitory concentration (IC50) in the assay with 22Rv1 Cell and with vCap Cell was above 1 µM throughout.

As for `CN1CCC(c2cc3c(c(N4CCCc5cc(-c6cnn(C)c6)c(C(F)F)cc54)c2)CN(C)C(=O)C3)CC1` [Compound M001028, 8-[7-(difluoromethyl)-6-(1-methylpyrazol-4-yl)-3,4-dihydro-2H-quinolin-1-yl]-2-methyl-6-(1-methyl-4-piperidyl)-1,4-dihydroisoquinolin-3-one], the IC50 with 22Rv1 Cell and in the assay on vCap Cell was above 1 µM throughout.

Consider `CC(=O)N1Cc2cc(C3CCN(C[C@H](C)O)CC3)cc(N3CCCc4cc(-c5cnn(C)c5)c(C(F)F)cc43)c2C1` [Compound M001030], for which the IC50 with 22Rv1 Cell and in the assay on vCap Cell was above 1 µM each time.

As to `CC(=O)N1Cc2cc(C3CC4CCC(C3)N4C)cc(N3CCCc4cc(-c5cnn(C)c5)c(C(F)F)cc43)c2C1` (centres unmarked) [Compound M001032], the IC50 with 22Rv1 Cell and in the assay with vCap Cell was above 1 µM in each case.

On to `CNC(=O)N1CCc2cc(C3CC4CCC(C3)N4C)cc(N3CCCc4cc(-c5cnn(C)c5)c(C(F)F)cc43)c2C1` (centres unmarked) [Compound M001035], for which the IC50 with 22Rv1 Cell and in the assay on vCap Cell was above 1 µM in each case.

Take `CC(=O)N1Cc2cc(C3CCNCC3)cc(N3CCCc4cc(-c5cnn(C)c5)c(C(F)F)cc43)c2C1` [Compound M001040]: the IC50 in the assay on 22Rv1 Cell and in the assay on vCap Cell was above 1 µM in each case.

For `CC(=O)N1Cc2cc(C3CCN(C)CC3)cc(N3CCCc4cc(-c5cnn(C)c5)c(C(F)F)cc43)c2C1` [Compound M001041], the IC50 with 22Rv1 Cell and in the assay with vCap Cell was above 1 µM in each case.

For the compound `CNC(=O)N1Cc2cc(C3CCNCC3)cc(N3CCCc4cc(-c5cnn(C)c5)c(C(F)F)cc43)c2C1` [Compound M001042], the IC50 with 22Rv1 Cell and in the assay with vCap Cell was above 1 µM each time.

As for `CNC(=O)N1Cc2cc(C3CCN(C)CC3)cc(N3CCCc4cc(-c5cnn(C)c5)c(C(F)F)cc43)c2C1` [Compound M001043], the IC50 in the assay with 22Rv1 Cell and in the assay on vCap Cell was above 1 µM throughout.

For the compound `CNC(=O)N1CCc2cc(N3CCNCC3)cc(N3CCCc4cc(-c5cnn(C)c5)c(C(F)F)cc43)c2C1` [Compound M001044], the IC50 with 22Rv1 Cell and in the assay with vCap Cell was above 1 µM each time.

As for `CNC(=O)N1CCc2cc(N3CCN(C)CC3)cc(N3CCCc4cc(-c5cnn(C)c5)c(C(F)F)cc43)c2C1` [Compound M001045], the IC50 with 22Rv1 Cell and in the assay on vCap Cell was above 1 µM throughout.

In the case of `CC(=O)N1Cc2cc(C3CCNC3)cc(N3CCCc4cc(-c5cnn(C)c5)c(C(F)F)cc43)c2C1` (centres unmarked) [Compound M001046], the IC50 with 22Rv1 Cell and with vCap Cell was above 1 µM each time.

Regarding `CC(=O)N1Cc2cc(C3CCN(C)C3)cc(N3CCCc4cc(-c5cnn(C)c5)c(C(F)F)cc43)c2C1` (centres unmarked) [Compound M001047], the concentration for half-maximal inhibition (IC50) in the assay with 22Rv1 Cell and with vCap Cell was above 1 µM each time.

For the compound `CC(=O)N1Cc2cc(C3CCCNC3)cc(N3CCCc4cc(-c5cnn(C)c5)c(C(F)F)cc43)c2C1` (centres unmarked) [Compound M001048], the 50% inhibitory concentration (IC50) in the assay on 22Rv1 Cell and in the assay on vCap Cell was above 1 µM each time.

`CC(=O)N1Cc2cc(C3CCCN(C)C3)cc(N3CCCc4cc(-c5cnn(C)c5)c(C(F)F)cc43)c2C1` (centres unmarked) [Compound M001049]: the IC50 in the assay with 22Rv1 Cell and with vCap Cell was above 1 µM throughout.

On to `CNC(=O)N1CCc2cc(C3CCNC3)cc(N3CCCc4cc(-c5cnn(C)c5)c(C(F)F)cc43)c2C1` (centres unmarked) [Compound M001050], for which the half-inhibitory concentration (IC50) in the assay on 22Rv1 Cell and with vCap Cell was above 1 µM throughout.

Take `CNC(=O)N1CCc2cc(C3CCN(C)C3)cc(N3CCCc4cc(-c5cnn(C)c5)c(C(F)F)cc43)c2C1` (centres unmarked) [Compound M001051]: the 50% inhibitory concentration (IC50) with 22Rv1 Cell and in the assay on vCap Cell was above 1 µM in each case.

Consider `CC(=O)N1Cc2cc(C3CC4CCC(C3)N4)cc(N3CCCc4cc(-c5cnn(C)c5)c(C(F)F)cc43)c2C1` (centres unmarked) [Compound M001052], for which the IC50 with 22Rv1 Cell and in the assay on vCap Cell was above 1 µM each time.

Consider `CC(=O)N1Cc2cc(C3CCN(C(C)=O)C3)cc(N3CCCc4cc(-c5cnn(C)c5)c(C(F)F)cc43)c2C1` (centres unmarked) [Compound M001053], for which the values for the IC50 in the assay with 22Rv1 Cell and in the assay with vCap Cell were above 1 µM and below 1 µM, respectively.

As for `CNC(=O)N1CCc2cc(C3CCN(C(C)=O)C3)cc(N3CCCc4cc(-c5cnn(C)c5)c(C(F)F)cc43)c2C1` (centres unmarked) [Compound M001054], the 50% inhibitory concentration (IC50) with 22Rv1 Cell and in the assay on vCap Cell was above 1 µM each time.

`CNC(=O)N1CCc2cc(C3CCN(CC(F)F)CC3)cc(N3CCCc4cc(-c5cnn(C)c5)c(C(F)F)cc43)c2C1` [Compound M001055]: the IC50 in the assay with 22Rv1 Cell and in the assay on vCap Cell was above 1 µM throughout.

On to `CC(=O)N1Cc2cc(C3CCN(C4COC4)CC3)cc(N3CCCc4cc(-c5cnn(C)c5)c(C(F)F)cc43)c2C1` [Compound M001056], for which the 50% inhibitory concentration (IC50) in the assay with 22Rv1 Cell and with vCap Cell was above 1 µM throughout.

Take `CC(=O)N1Cc2cc(C3CCN(CC(F)(F)F)CC3)cc(N3CCCc4cc(-c5cnn(C)c5)c(C(F)F)cc43)c2C1` [Compound M001057]: the half-maximal inhibitory concentration (IC50) in the assay with 22Rv1 Cell and in the assay with vCap Cell was above 1 µM each time.

Turning to `CC(=O)N1Cc2cc(C3CCN(CC(F)F)CC3)cc(N3CCCc4cc(-c5cnn(C)c5)c(C(F)F)cc43)c2C1` [Compound M001058], the IC50 in the assay with 22Rv1 Cell and in the assay with vCap Cell was above 1 µM in each case.

As to `CNC(=O)N1CCc2cc(C3CCN(C4COC4)CC3)cc(N3CCCc4cc(-c5cnn(C)c5)c(C(F)F)cc43)c2C1` [Compound M001059], the IC50 in the assay on 22Rv1 Cell and in the assay with vCap Cell was above 1 µM in each case.

With `CNC(=O)N1CCc2cc(C3CCN(CC(F)(F)F)CC3)cc(N3CCCc4cc(-c5cnn(C)c5)c(C(F)F)cc43)c2C1` [Compound M001060], the IC50 in the assay on 22Rv1 Cell and in the assay on vCap Cell was above 1 µM in each case.

With `CC(=O)N1Cc2cc(C3CCC(O)CC3)cc(N3CCCc4cc(-c5cnn(C)c5)c(C(F)F)cc43)c2C1` (centres unmarked) [Compound M001064], the IC50 in the assay on 22Rv1 Cell is above 1 µM; with vCap Cell it was below 1 µM.

`CC(=O)N1Cc2cc(C3CCC(F)(F)CC3)cc(N3CCCc4cc(-c5cnn(C)c5)c(C(F)F)cc43)c2C1` [Compound M001066]: the 50% inhibitory concentration (IC50) in the assay on 22Rv1 Cell and in the assay on vCap Cell was above 1 µM in each case.

Take `CNC(=O)N1CCc2cc(C3CCN(C(C)=O)CC3)cc(N3CCCc4cc(-c5cnn(C)c5)c(C(F)F)cc43)c2C1` [Compound M001068]: the IC50 with 22Rv1 Cell and with vCap Cell was below 1 µM in each case.

`CNC(=O)N1CCc2cc(C3CCN(C(=O)C4CC4)CC3)cc(N3CCCc4cc(-c5cnn(C)c5)c(C(F)F)cc43)c2C1` [Compound M001069]: the IC50 with 22Rv1 Cell is below 1 µM; with vCap Cell it was above 1 µM.

In the case of `CNC(=O)N1CCc2cc(C3CCN(CC#N)CC3)cc(N3CCCc4cc(-c5cnn(C)c5)c(C(F)F)cc43)c2C1` [Compound M001070], the IC50 with 22Rv1 Cell and in the assay on vCap Cell was above 1 µM in each case.

Turning to `CC(=O)N1CCC(c2cc3c(c(N4CCCc5cc(-c6cnn(C)c6)c(C(F)F)cc54)c2)CN(C(C)=O)C3)CC1` [Compound M001071], the half-inhibitory concentration (IC50) with 22Rv1 Cell and with vCap Cell was above 1 µM throughout.

As to `CC(=O)N1Cc2cc(C3CCN(C(=O)C4CC4)CC3)cc(N3CCCc4cc(-c5cnn(C)c5)c(C(F)F)cc43)c2C1` [Compound M001072], the IC50 with 22Rv1 Cell and with vCap Cell was above 1 µM each time.

For `CC(=O)N1Cc2cc(C3CCN(C(=O)C(C)O)CC3)cc(N3CCCc4cc(-c5cnn(C)c5)c(C(F)F)cc43)c2C1` (centres unmarked) [Compound M001073], the IC50 in the assay with 22Rv1 Cell and with vCap Cell was above 1 µM each time.

Consider `CC(=O)N1Cc2cc(C3CCN(CC#N)CC3)cc(N3CCCc4cc(-c5cnn(C)c5)c(C(F)F)cc43)c2C1` [Compound M001074], for which the IC50 with 22Rv1 Cell and in the assay on vCap Cell was below 1 µM each time.

With `CNC(=O)N1CCc2cc(C3CCN(C(=O)C4CCNC4)CC3)cc(N3CCCc4cc(-c5cnn(C)c5)c(C(F)F)cc43)c2C1` (centres unmarked) [Compound M001075], the IC50 with 22Rv1 Cell and in the assay with vCap Cell was above 1 µM each time.

With `CC(=O)N1Cc2cc(C3CCN(C(=O)C4CNC4)CC3)cc(N3CCCc4cc(-c5cnn(C)c5)c(C(F)F)cc43)c2C1` [Compound M001079], the IC50 in the assay on 22Rv1 Cell and with vCap Cell was above 1 µM throughout.

`CC(=O)N1Cc2cc(C3CCN(C(=O)C4CCNC4)CC3)cc(N3CCCc4cc(-c5cnn(C)c5)c(C(F)F)cc43)c2C1` (centres unmarked) [Compound M001080]: the IC50 with 22Rv1 Cell and with vCap Cell was above 1 µM in each case.
